We go through 19 compounds from patent US20070275984A1, “Novel Thieno-Pyridine and Thieno-Pyrimidine Derivatives and Their Use as Positive Allosteric Modulators of Mglur2-Receptors” (JANSSEN PHARMACEUTICA N.V., priority 2004, published 2007).

As usually defined, the melting point is the temperature of the solid-liquid transition. Compound `CCc1cc2c(NC(C)c3ccccc3)ncnc2s1` (stereo not shown) displayed a melting point of 141 °C.
To `Cc1nc(NCCc2ccccc2)c2ccsc2n1` [Compound 1, 2-methyl-N-phenethylthieno[2,3-d]pyrimidin-4-amine] belongs 111 °C; to `CCc1nc(NCCc2ccccc2)c2ccsc2n1` [Compound 2, 2-ethyl-N-phenethylthieno[2,3-d]pyrimidin-4-amine], 89 °C.
`Cc1nc(N2CCc3ccccc3C2)c2cc(C)sc2n1` [Compound 4, 2-(2,6-dimethylthieno[2,3-d]pyrimidin-4-yl)-1,2,3,4-tetrahydroisoquinoline] displayed a melting point of 105 °C.
The figure for `COc1cccc(CNc2nc(C)nc3sc(C)cc23)c1` [Compound 6, N-(3-methoxybenzyl)-2,6-dimethylthieno[2,3-d]pyrimidin-4-amine] is 97 °C; for `CCc1nc(NCc2cccc(OC)c2)c2cc(C)sc2n1` [Compound 7, N-(3-methoxybenzyl)-2-ethyl-6-methylthieno[2,3-d]pyrimidin-4-amine] it is 108.4 °C.
The figure for `COc1ccc(CNc2nc(C)nc3sc(C)cc23)cc1` [Compound 8, N-(4-methoxybenzyl)-2,6-dimethylthieno[2,3-d]pyrimidin-4-amine] is 127.5 °C; for `COc1ccc(CNc2nc(C)nc3sc(C)cc23)cc1OC` [Compound 9, N-(3,4-dimethoxybenzyl)-2,6-dimethylthieno[2,3-d]pyrimidin-4-amine] it is 142 °C; for `Cc1nc(NCc2cccc(Cl)c2)c2cc(C)sc2n1` [Compound 10, N-(3-chlorobenzyl)-2,6-dimethylthieno[2,3-d]pyrimidin-4-amine] it is 136.5 °C.
To `Cc1nc(NCC(=O)c2ccccc2)c2cc(C)sc2n1` [Compound 12, 2-(2,6-dimethylthieno[2,3-d]pyrimidin-4-ylamino)-1-phenylethanone] belongs 159 °C; to `Cc1nc(NCCc2ccccc2)c2cc(C)sc2n1` [Compound 13, 2,6-dimethyl-N-phenethylthieno[2,3-d]pyrimidin-4-amine], 106 °C; to `Cc1cc2c(NCCc3ccccc3)nc(Cl)nc2s1` [Compound 14, 2-chloro-6-methyl-N-phenethylthieno[2,3-d]pyrimidin-4-amine], 119 °C.
`Cc1cc2c(NCCc3ccccc3)nc(N(C)C)nc2s1` [Compound 16, N2,N2,6-trimethyl-N4-phenethylthieno[2,3-d]pyrimidine-2,4-diamine]: the melting point amounted to 142 °C.
In turn, `Cc1ccc(CCNc2nc(C)nc3sc(C)cc23)cc1` [Compound 19, N-(4-methylphenethyl)-2,6-dimethylthieno[2,3-d]pyrimidin-4-amine] showed a melting point of 115 °C.
The figure for `CCc1ccc(CCNc2nc(C)nc3sc(C)cc23)cc1` [Compound 20, N-(4-ethylphenethyl)-2,6-dimethylthieno[2,3-d]pyrimidin-4-amine] is 62 °C; for `Cc1nc(NCCc2cccc(C(F)(F)F)c2)c2cc(C)sc2n1` [Compound 21, N-(3-(trifluoromethyl)phenethyl)-2,6-dimethylthieno[2,3-d]pyrimidin-4-amine] it is 98.2 °C.
To `Cc1nc(NCCc2cccc(O)c2)c2cc(C)sc2n1` [Compound 22, N-(3-hydroxyphenethyl)-2,6-dimethylthieno[2,3-d]pyrimidin-4-amine] belongs 162.5 °C.
In the case of `Cc1nc(NCCc2ccc(O)cc2)c2cc(C)sc2n1` [Compound 23, 4-(2-(2,6-dimethylthieno[2,3-d]pyrimidin-4-ylamino)ethyl)phenol], the melting point turned out to be 166 °C.
The figure for `COc1ccccc1CCNc1nc(C)nc2sc(C)cc12` [Compound 24, N-(2-methoxyphenethyl)-2,6-dimethylthieno[2,3-d]pyrimidin-4-amine] is 134 °C.
